Laboratory results as given in ChEMBL document CHEMBL6182869, “Tetracationic tetraaryltetranaphtho[2,3]porphyrins for photodynamic inactivation against Staphylococcus aureus biofilm” (Eur J Med Chem, 2025).
The source made the active and inactive calls. The rule behind the calls is not given here.

How the values were obtained:
Staphylococcus aureus [1] = assay: Antibiofilm activity against Staphylococcus aureus assessed as increase in red fluorescence intensity at 16 uM preincubated for 15 mins followed by light irradiation with 730 nm, 40 J/cm2 by SYTO 9/PI staining based CLSM analysis; format: functional, organism-based
Candida albicans [2] = assay: Antifungal activity against Candida albicans assessed as fungal growth inhibition preincubated with compound for 15 mins followed by light irradiated with 730 nm, 40 J/cm2 and measured after 24 hrs by broth microdilution method; format: functional; details: light or radiation study, 24.25 h, time 1455 min
Staphylococcus aureus [3] = assay: Antibacterial activity against Staphylococcus aureus preincubated with compound for 15 mins followed by light irradiation with 730 nm, 40 J/cm2 by cell counting analysis; format: functional, organism-based; details: dose 0.5-8 µM
Staphylococcus aureus [4] = assay: Bactericidal activity against Staphylococcus aureus at 0.5 to 8 uM; format: functional, organism-based; details: dose 0.5-8 µM
Staphylococcus aureus [5] = assay: Antibacterial activity against Staphylococcus aureus assessed as log reduction in bacterial viability at 8 uM preincubated with compound for 15 mins followed by light irradiation with 730 nm, 40 J/cm2 by cell counting analysis relative to control; format: functional; details: 0.25 h
[6] = Dark cytotoxicity against human HaCaT cells assessed as cell viability at 16 uM preincubated for 15 mins by MTT assay; format: toxicity, cell-based; details: read-out: Activity
[7] = Induction of singlet oxygen quantum yield under 418 nm light irradiation by DPBF based assay; format: functional
Staphylococcus aureus [8] = assay: Antibacterial activity against Staphylococcus aureus assessed as eradication rate at 8 uM preincubated with compound for 15 mins followed by light irradiation with 730 nm, 40 J/cm2 relative to control; format: functional; details: 0.25 h
Staphylococcus aureus [9] = assay: Antibiofilm activity against Staphylococcus aureus assessed as disruption of mature biofilm structure at 16 uM preincubated for 15 mins followed by light irradiation with 730 nm, 40 J/cm2 by crystal violet staining based analysis; format: functional, organism-based
Staphylococcus aureus [10] = assay: Antibacterial activity against Staphylococcus aureus assessed as bacterial growth inhibition preincubated with compound for 15 mins followed by light irradiated with 730 nm, 40 J/cm2 and measured after 24 hrs by broth microdilution method; format: functional; details: light or radiation study, 24.25 h, time 1455 min
Staphylococcus aureus [11] = assay: Antibiofilm activity against Staphylococcus aureus assessed as reduction in green fluorescence intensity at 16 uM preincubated for 15 mins followed by light irradiation with 730 nm, 40 J/cm2 by SYTO 9/PI staining based CLSM analysis; format: functional, organism-based
[12] = Photophysical property of the compound assessed as singlet oxygen quantum yield by UV-vis spectrophotometric analysis; format: physicochemical
HaCaT [13] = assay: Phototoxicity in human HaCaT cells assessed as cell viability at 16 uM preincubated for 15 mins by MTT assay; format: functional, cell-based
Escherichia coli [14] = assay: Antibacterial activity against Escherichia coli assessed as bacterial growth inhibition measured after 24 hrs by broth microdilution method; format: functional
Staphylococcus aureus [15] = assay: Antibiofilm activity against Staphylococcus aureus assessed as disruption of mature biofilm rate at 16 uM preincubated for 15 mins followed by light irradiation with 730 nm, 40 J/cm2 by crystal violet staining based analysis relative to control; format: functional; details: 0.25 h
Candida albicans [16] = assay: Antifungal activity against Candida albicans assessed as fungal growth inhibition measured after 24 hrs by broth microdilution method; format: functional
Staphylococcus aureus [17] = assay: Antibacterial activity against Staphylococcus aureus assessed as reduction in viable bacteria at 0.5 uM preincubated with compound for 15 mins followed by light irradiation with 730 nm, 40 J/cm2 by cell counting analysis relative to control; format: functional; details: 0.25 h
HaCaT [18] = assay: Phototoxicity in human HaCaT cells assessed as cell viability at 16 uM preincubated for 15 mins followed by light irradiation with 730 nm, 40 J/cm2 by MTT assay; format: functional, cell-based
Escherichia coli [19] = assay: Antibacterial activity against Escherichia coli assessed as bacterial growth inhibition preincubated with compound for 15 mins followed by light irradiated with 730 nm, 40 J/cm2 and measured after 24 hrs by broth microdilution method; format: functional; details: light or radiation study, 24.25 h, time 1455 min
[20] = Photophysical property of the compound assessed as fluorescence quantum yield by UV-vis spectrophotometric analysis; format: physicochemical
Staphylococcus aureus [21] = assay: Antibacterial activity against Staphylococcus aureus assessed as bacterial growth inhibition measured after 24 hrs by broth microdilution method; format: functional

Compound	MIC (Candida albicans [2]) [µM]	Activity [7]	MIC (Staphylococcus aureus [10]) [µM]	Activity [12]	MIC (Escherichia coli [14]) [µM]	MIC (Candida albicans [16]) [µM]	MIC (Escherichia coli [19]) [µM]	Activity [20]	MIC (Staphylococcus aureus [21]) [µM]	other results
[Br-].[Br-].[Br-].[Br-].c1cc[n+](CCCOc2ccc(-c3c4nc(c(-c5ccc(OCCC[n+]6ccccc6)cc5)c5[nH]c(c(-c6ccc(OCCC[n+]7ccccc7)cc6)c6nc(c(-c7ccc(OCCC[n+]8ccccc8)cc7)c7[nH]c3c3cc8ccccc8cc73)-c3cc7ccccc7cc3-6)c3cc6ccccc6cc53)-c3cc5ccccc5cc3-4)cc2)cc1	32	Active	8	0.45	> 64	64	> 64	0.07	32	Activity (Staphylococcus aureus [1]): Active; Activity (Staphylococcus aureus [3]): Dose-dependent-effect; Activity (Staphylococcus aureus [4]): Active; log(activity) (Staphylococcus aureus [5]): 3; viability at 0.25 h, 16 µM [6]: > 80%; Activity (Staphylococcus aureus [8]): >99.9%; Activity (Staphylococcus aureus [9]): Active; Activity (Staphylococcus aureus [11]): Active; Activity (HaCaT [13]): inactive; Activity (Staphylococcus aureus [15]): 77.5%; Activity (Staphylococcus aureus [17]): >75%; Activity (HaCaT [18]): inactive
CC[N+](C)(CC)CCCCCCOc1ccc(-c2c3nc(c(-c4ccc(OCCCCCC[N+](C)(CC)CC)cc4)c4[nH]c(c(-c5ccc(OCCCCCC[N+](C)(CC)CC)cc5)c5nc(c(-c6ccc(OCCCCCC[N+](C)(CC)CC)cc6)c6[nH]c2c2cc7ccccc7cc62)-c2cc6ccccc6cc2-5)c2cc5ccccc5cc42)-c2cc4ccccc4cc2-3)cc1.[Br-].[Br-].[Br-].[Br-]	64	Active	64	0.68	> 64	64	> 64	0.07	64	–
[Br-].[Br-].[Br-].[Br-].c1cc[n+](CCCCCCOc2ccc(-c3c4nc(c(-c5ccc(OCCCCCC[n+]6ccccc6)cc5)c5[nH]c(c(-c6ccc(OCCCCCC[n+]7ccccc7)cc6)c6nc(c(-c7ccc(OCCCCCC[n+]8ccccc8)cc7)c7[nH]c3c3cc8ccccc8cc73)-c3cc7ccccc7cc3-6)c3cc6ccccc6cc53)-c3cc5ccccc5cc3-4)cc2)cc1	64	Active	64	0.52	> 64	64	> 64	0.07	64	–
C[N+](C)(C)CCCCOc1ccc(-c2c3nc(c(-c4ccc(OCCCC[N+](C)(C)C)cc4)c4[nH]c(c(-c5ccc(OCCCC[N+](C)(C)C)cc5)c5nc(c(-c6ccc(OCCCC[N+](C)(C)C)cc6)c6[nH]c2c2cc7ccccc7cc62)-c2cc6ccccc6cc2-5)c2cc5ccccc5cc42)-c2cc4ccccc4cc2-3)cc1.[Br-].[Br-].[Br-].[Br-]	64	Active	16	0.41	> 64	64	> 64	0.08	32	–
CC[N+](C)(CC)CCCCOc1ccc(-c2c3nc(c(-c4ccc(OCCCC[N+](C)(CC)CC)cc4)c4[nH]c(c(-c5ccc(OCCCC[N+](C)(CC)CC)cc5)c5nc(c(-c6ccc(OCCCC[N+](C)(CC)CC)cc6)c6[nH]c2c2cc7ccccc7cc62)-c2cc6ccccc6cc2-5)c2cc5ccccc5cc42)-c2cc4ccccc4cc2-3)cc1.[Br-].[Br-].[Br-].[Br-]	64	Active	8	0.56	> 64	64	> 64	0.07	16	–
